Results on 1 compound are retold here after ChEMBL document CHEMBL4616634, “4β-Hydroxywithanolide E from Goldenberry (Whole Fruits of Physalis peruviana L.) as a Promising Agent against Chronic Obstructive Pulmonary Disease” (J Nat Prod, 2020).

Calls of active or inactive are those of the source. No cut-off for these calls is given here.

In data set [1] the target is T1, Nuclear factor erythroid 2-related factor 2 (Mus musculus) (UniProt Q60795).
T1 sequence (whole entry): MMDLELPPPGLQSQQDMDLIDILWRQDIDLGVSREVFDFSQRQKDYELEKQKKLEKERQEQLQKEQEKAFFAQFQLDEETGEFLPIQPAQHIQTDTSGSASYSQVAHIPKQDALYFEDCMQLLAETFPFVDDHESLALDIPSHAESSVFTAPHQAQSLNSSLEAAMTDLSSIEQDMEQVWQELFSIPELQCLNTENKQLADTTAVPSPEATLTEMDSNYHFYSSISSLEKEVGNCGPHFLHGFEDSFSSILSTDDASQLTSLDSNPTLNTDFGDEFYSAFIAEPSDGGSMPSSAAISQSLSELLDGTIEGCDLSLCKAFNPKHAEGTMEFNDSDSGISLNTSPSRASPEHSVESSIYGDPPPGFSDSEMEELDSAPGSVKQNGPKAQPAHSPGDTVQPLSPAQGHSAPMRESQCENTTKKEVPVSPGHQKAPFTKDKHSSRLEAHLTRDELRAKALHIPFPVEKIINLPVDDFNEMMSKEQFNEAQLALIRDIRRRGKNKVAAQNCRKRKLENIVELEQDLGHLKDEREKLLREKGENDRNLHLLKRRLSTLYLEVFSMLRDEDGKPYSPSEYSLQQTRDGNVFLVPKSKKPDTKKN
The data set is described as follows: Activation of Nrf2 in mouse Hepa1c1c7 cells assessed as increase in quinone reductase activity incubated for 24 hrs by MTT based assay. It is filed as cell-based. On the technique in general: Formazan colour is commonly taken as a measure of viable cells.

Data set [2] deals with T2, Nuclear factor erythroid 2-related factor 2 (Homo sapiens) (UniProt Q16236).
T2 sequence (whole entry): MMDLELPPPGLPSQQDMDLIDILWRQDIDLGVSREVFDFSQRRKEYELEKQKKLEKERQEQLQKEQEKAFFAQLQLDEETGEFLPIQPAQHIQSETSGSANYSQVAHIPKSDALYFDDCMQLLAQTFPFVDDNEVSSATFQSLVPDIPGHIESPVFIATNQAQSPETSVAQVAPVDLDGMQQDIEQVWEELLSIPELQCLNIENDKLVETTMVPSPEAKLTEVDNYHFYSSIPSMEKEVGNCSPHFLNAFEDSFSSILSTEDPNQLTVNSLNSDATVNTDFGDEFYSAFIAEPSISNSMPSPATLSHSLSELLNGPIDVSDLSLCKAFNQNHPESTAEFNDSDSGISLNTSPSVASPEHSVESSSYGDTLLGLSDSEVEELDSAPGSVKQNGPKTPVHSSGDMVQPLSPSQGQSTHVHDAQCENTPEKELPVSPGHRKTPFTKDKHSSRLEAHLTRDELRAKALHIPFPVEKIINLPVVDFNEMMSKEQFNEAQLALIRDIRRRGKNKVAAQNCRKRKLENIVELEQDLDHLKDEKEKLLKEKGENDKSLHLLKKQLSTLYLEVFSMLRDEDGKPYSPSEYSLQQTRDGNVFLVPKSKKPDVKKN
The data set is described as follows: Activation of Nrf2 in human MDA-MB-231 cells assessed as increase in ARE luciferase activity at 0.13 to 2 uM incubated for 16 hrs by luciferase reporter gene assay. It is filed as cell-based.

The target in data set [3] is T2, Nuclear factor erythroid 2-related factor 2 (Homo sapiens). The data set is described as follows: Activation of Nrf2 in human MDA-MB-231 cells assessed as increase in ARE luciferase activity at 2 uM incubated for 16 hrs by luciferase reporter gene assay. It is filed as cell-based. (Reporter assays use an easily measured gene product as a stand-in for the process of interest.)

The subject of a further data set is MDA-MB-231. Kind of data set: Cytotoxicity against human MDA-MB-231 cells assessed as decrease in cell viability at 0.13 to 10 uM after 24 to 48 hrs by MTT assay. It is filed as cell-based. The settings on record: mda-mb-231, 10 µM.
Data set [4] addresses T2, Nuclear factor erythroid 2-related factor 2 (Homo sapiens). Kind of data set: Activation of Nrf2 in human MDA-MB-231 cells assessed as increase in GCLM protein level at 0.5 uM incubated for 16 hrs by immunoblot analysis. It is filed as cell-based. In general terms: Immunoblotting shows a protein as a band on a membrane.
For data set [5] the target is unchanged. The data set is described as follows: Activation of Nrf2 in human BEAS2B cells assessed as increase in GCLM protein expression incubated for 12 hrs by immunoblot analysis. It is filed as cell-based.
Data set [6] shares this target. The data set is described as follows: Activation of Nrf2 in human BEAS2B cells assessed as increase in Nrf2 protein expression at 1 uM incubated for 24 hrs by immunoblot analysis. It is filed as cell-based.
Data set [7] shares this target. The data set is described as follows: Activation of Nrf2 in human BEAS2B cells assessed as increase in Nrf2 translocation in nucleus at 1 uM incubated for 6 hrs by DAPI staining based fluorescence microscopic analysis. It counts as cell-based.
For data set [8] the target is unchanged. The data set is described as follows: Stabilization of Nrf2 in human BEAS2B cells assessed as protein half life at 1 uM after 8 hrs in presence of CHX by immunoblot analysis (reference value: 12.9 min). It is filed as cell-based.
Data set [9] has the same target. The data set is described as follows: Activation of Nrf2 in human BEAS2B cells assessed as increase in Nrf2 protein expression at 5 uM incubated for 24 hrs by immunoblot analysis. It counts as cell-based.
Data set [10] has as its target Keap1/Nrf2 (Homo sapiens) (UniProt Q16236+Q14145). Kind of data set: Inhibition of Nrf2-KEAP1 (unknown origin) transfected in BEAS2B cells assessed as decrease in ratio of Nrf2 to Keap1 at 5 uM incubated for 24 hrs by immunoblot analysis. It is filed as cell-based.
In data set [11] the target is T2, Nuclear factor erythroid 2-related factor 2 (Homo sapiens). Kind of data set: Activation of Nrf2 in human BEAS2B cells harboring wild type Keap1 assessed as increase in Nrf2 protein expression at 2 uM after12 hrs in presence of Keap1-siRNA by immunoblot analysis. It counts as cell-based.
Data set [12] shares this target. Kind of data set: Activation of Nrf2 in human BEAS2B cells harboring Keap1-C288S mutant assessed as increase in Nrf2 protein expression at 2.5 uM after12 hrs in presence of Keap1-siRNA by immunoblot analysis. It is filed as cell-based.
Data set [13] has as its target Transcription factor p65 (Mus musculus) (UniProt Q04207). The data set is described as follows: Inhibition of LPS-induced NFkappaB p65 nucleus translocation in mouse RAW264.7 cells at 2 uM pre-incubated for 1 hr followed by LPS-stimulation and measured after 1 hr by immunoblot analysis. It counts as cell-based.
Data set [14] deals with RAW264.7. The data set is described as follows: Inhibition of LPS-induced COX2 protein expression in mouse RAW264.7 cells at 0.5 to 4 uM preincubated for 1 hr followed by LPS-stimulation and measured after 16 hrs by immunoblot analysis. It is filed as functional, cell-based.
Data set [15] concerns RAW264.7. Kind of data set: Inhibition of LPS-induced iNOS mRNA expression in mouse RAW264.7 cells at 0.5 to 4 uM preincubated for 1 hr followed by LPS-stimulation and measured after 6 hrs by qRT-PCR analysis. It counts as functional, cell-based.
Data set [16] has as its system RAW264.7. Kind of data set: Inhibition of LPS-induced IL-1beta mRNA expression in mouse RAW264.7 cells at 0.5 to 4 uM preincubated for 1 hr followed by LPS-stimulation and measured after 6 hrs by qRT-PCR analysis. It counts as functional, cell-based.
Data set [17] deals with Mus musculus. The data set is described as follows: Antiinflammatory activity in C57BL/6 mouse model of CS-induced pulmonary injury assessed as reduction in thickening of the alveolar septa in lungs at 2 to 4 mg/kg, ip for 5 days by hematoxylin and eosin staining based fluorescence microscopic analysis. It counts as functional, organism-based.
For data set [18], the system named is Mus musculus. The data set is described as follows: Antiinflammatory activity in C57BL/6 mouse model of CS-induced pulmonary injury assessed as reduction in goblet cell hyperplasia in perivascular areas in lungs at 2 to 4 mg/kg, ip for 5 days by hematoxylin and eosin staining based fluorescence microscopic analysis. It counts as functional, organism-based.

In data set [19] the test system is Mus musculus. The data set is described as follows: Antioxidant Activity in C57BL/6 mouse model of CS-induced pulmonary injury assessed as decrease in MDA level in lungs at 2 to 4 mg/kg, ip for 5 days. It is filed as functional, organism-based.

Chain of Transcription factor p65 (Mus musculus) (Q04207 whole entry): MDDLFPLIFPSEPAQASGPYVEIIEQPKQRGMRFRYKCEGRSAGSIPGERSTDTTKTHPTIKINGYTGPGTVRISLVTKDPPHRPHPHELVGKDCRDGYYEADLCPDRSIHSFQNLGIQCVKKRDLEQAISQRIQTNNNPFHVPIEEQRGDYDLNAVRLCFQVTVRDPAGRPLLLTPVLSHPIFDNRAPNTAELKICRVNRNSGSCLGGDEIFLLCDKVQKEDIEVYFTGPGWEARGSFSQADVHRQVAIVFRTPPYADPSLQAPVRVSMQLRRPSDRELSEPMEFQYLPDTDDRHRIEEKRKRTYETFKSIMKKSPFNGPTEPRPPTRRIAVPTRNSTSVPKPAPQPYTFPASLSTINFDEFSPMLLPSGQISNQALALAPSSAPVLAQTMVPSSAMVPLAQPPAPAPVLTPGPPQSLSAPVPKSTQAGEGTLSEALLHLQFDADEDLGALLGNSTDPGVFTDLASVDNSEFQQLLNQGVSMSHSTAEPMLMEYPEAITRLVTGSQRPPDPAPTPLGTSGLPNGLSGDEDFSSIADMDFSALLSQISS
Chain of Keap1/Nrf2 (Homo sapiens) (Q14145 whole entry, looked up, one chain of several): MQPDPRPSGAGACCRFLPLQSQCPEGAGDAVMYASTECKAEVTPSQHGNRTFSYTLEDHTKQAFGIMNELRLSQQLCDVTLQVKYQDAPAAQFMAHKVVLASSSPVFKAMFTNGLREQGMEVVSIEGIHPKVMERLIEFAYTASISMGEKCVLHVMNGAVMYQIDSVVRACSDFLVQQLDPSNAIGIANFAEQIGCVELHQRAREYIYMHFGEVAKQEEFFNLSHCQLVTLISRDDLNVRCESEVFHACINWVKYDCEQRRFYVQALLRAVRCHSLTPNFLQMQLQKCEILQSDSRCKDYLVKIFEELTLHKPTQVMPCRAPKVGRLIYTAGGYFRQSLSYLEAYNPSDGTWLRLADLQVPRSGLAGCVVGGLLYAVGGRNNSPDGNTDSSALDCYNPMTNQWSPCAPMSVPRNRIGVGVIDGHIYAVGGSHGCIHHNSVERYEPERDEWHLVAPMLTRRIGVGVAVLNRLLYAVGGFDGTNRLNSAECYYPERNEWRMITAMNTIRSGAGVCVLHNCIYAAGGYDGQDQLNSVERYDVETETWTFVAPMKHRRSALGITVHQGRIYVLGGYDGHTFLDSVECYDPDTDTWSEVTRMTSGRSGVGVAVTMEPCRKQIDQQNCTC

As for `CC1=C(C)C(=O)O[C@H]([C@](C)(O)[C@]2(O)CC[C@@]3(O)[C@@H]4C[C@H]5O[C@]56[C@@H](O)C=CC(=O)[C@]6(C)[C@H]4CC[C@]23C)C1`, the Activity result is “Dose-dependent effect” in [1], “Toxic” in the data set with MDA-MB-231 and “Dose-dependent effect” in [5]. The result (in data set [2]; in [4]; in data set [7]; in data set [9]; in data set [11]; in the data set on Mus musculus [17]) was Active. Also, the result in the data set with Mus musculus [18] and in the data set on Mus musculus [19] was Active. Besides, in data set [3], the fold change (FC) was determined as 8.5. Also, the result in [6] and in data set [12] was inactive. The T1/2 in [8] came to 34.3 min. The inhibition result (in data set [10]; in data set [13]; with RAW264.7 [14]; in the data set with RAW264.7 [15]; in the data set with RAW264.7 [16]) was “Active” in each case.
